Where a name gives a salt, the structure may show the parent alone.
System: SMN2 promoter
Assay: SMN2 promoter assay (β-lactamase reporter) in NSC-34 cells
Format: cell-based, mouse
Conditions: Mus musculus, SMN2 promoter driving β-lactamase, 12 point dose curve, average of 3-6 dose curve experiments
Excerpt: All compounds were screened using an in vitro based SMN2 promoter assay. We used NSC-34 cells, a hybrid cell line between mouse spinal cord cells and mouse neuroblastoma cells. NSC-34 cells harbor an expression plasmid containing a 3.4 kb promoter fragment of the SMN2 gene driving β-lactamase expression.
[…] […] CCF2-AM diffuses across the plasma membrane and is converted into an active β-lactamase substrate by cytoplasmic esterase. […] The fold induction is proportional to the extent of β-lactamase produced and in turn proportional to SMN2 promoter activation for a given compound relative to vehicle (DMSO) control. […] These values are used to rank activities of the compounds and derive structure activity relationship.

| Compound | EC50 [nM] |
| --- | --- |
| Nc1nc(N)c2c(-c3ccsc3)cccc2n1 [Example 90, 5-Thiophen-3-yl-quinazoline-2,4-diamine] | 1000 to 5000 |
| CC(Oc1cccc2nc(N)nc(N)c12)c1ccccc1C(F)(F)F (stereo not drawn) [Example 94, 5-[1-(2-Trifluoromethylphenyl)-ethoxy]-quinazoline-2,4-diamine] | 10000 to 20000 |
| Nc1nc(N)c2c(COc3cccc(Cl)c3)cccc2n1 [Example 158, 5-(3-Chlorophenoxymethyl)quinazoline-2,4-diamine] | < 1000 |
| Cc1cccc(S(=O)(=O)c2cccc3nc(N)nc(N)c23)c1 [Example 60, 5-(Toluene-3-sulfonyl)-quinazoline-2,4-diamine] | 1000 to 5000 |
| C[C@H](Oc1cccc2nc(N)nc(N)c12)c1ccccc1 [Example 42, 5-((S)-1-Phenylethoxy)quinazoline-2,4-diamine] | < 1000 |
| COc1ccc(OCc2cccc3nc(N)nc(N)c23)cc1 [Example 148, 5-(4-Methoxyphenoxymethyl)quinazoline-2,4-diamine] | 1000 to 5000 |
| COc1ccc(Cc2cccc3nc(N)nc(N)c23)cc1 [Example 26, 5-(4-Methoxybenzyl)Quinazoline-2,4-Diamine] | < 1000 |
| COCCOc1cccc2nc(N)nc(N)c12 [Example 15, 5-(2-Methoxyethoxy)quinazoline-2,4-diamine] | < 1000 |
| COCOCC(Oc1cccc2nc(N)nc(N)c12)c1ccc(F)cc1 (stereo not drawn) [Example 153, 5-[1-(4-Fluorophenyl)-2-methoxymethoxyethoxy]quinazoline-2,4-diamine] | < 1000 |
| CC(C)(C)OC(=O)N1CCC(COc2cccc3nc(N)nc(N)c23)CC1 [Example 121, 4-(2,4-Diamino-quinazolin-5-yloxymethyl)-piperidin-1-carboxylic acid tert-butyl ester] | < 1000 |
| Nc1nc(N)c2c(O[C@@H]3CCc4ccc(Cl)cc43)cccc2n1 [Example 150, 5-((R)-6-Chloroindan-1-yloxy)quinazoline-2,4-diamine] | < 1000 |
| Nc1nc(N)c2c(COc3ccccc3Cl)cccc2n1 [Example 138, 5-(2-Chlorophenoxymethyl)quinazoline-2,4-diamine] | < 1000 |
| Nc1nc(N)c2c(COc3ccc(Cl)cc3)cccc2n1 [Example 43, 5-(4-Chlorophenoxymethyl)quinazoline-2,4-diamine] | < 1000 |
| Nc1nc(N)c2c(OC3(c4cccc(Cl)c4)CC3)cccc2n1 [Example 146, 5-[1-(3-Chlorophenyl)cyclopropoxy]quinazoline-2,4-diamine] | < 1000 |
| Nc1nc(N)c2c(OCc3ccc(C(F)(F)F)cc3)cccc2n1 [Example 100, 5-(4-Trifluoromethylbenzyloxy)-quinazoline-2,4-diamine] | < 1000 |
| Nc1nc(N)c2c(OCC3CCNCC3)cccc2n1 [Example 116, 5-(Piperidin-4-ylmethoxy)-quinazoline-2,4-diamine hydrochloride] | < 1000 |
| Cc1ccc(OCc2cccc3nc(N)nc(N)c23)cc1 [Example 44, 5-p-Tolyloxymethylquinazoline-2,4-diamine] | < 1000 |
| CC(Oc1cccc2nc(N)nc(N)c12)c1ccc(Cl)c(Cl)c1 (stereo not drawn) [Example 78, 5-[1-(3,4-Dichlorophenyl)-ethoxy]-quinazoline-2,4-diamine] | < 1000 |
| COc1cc(Cl)ccc1Oc1cccc2nc(N)nc(N)c12 [Example 71, 5-(4-Chloro-2-methoxyphenoxy)-quinazoline-2,4-diamine] | < 1000 |

| Compound | EC50 [nM] |
| --- | --- |
| Nc1nc(N)c2c(OCCc3ccc(Cl)cc3)cccc2n1 [Example 9, 5-[2-(4-Chlorophenyl)ethoxy]quinazoline-2,4-diamine] | < 1000 |
| C[C@@H](Oc1cccc2nc(N)nc(N)c12)c1cccc(Cl)c1 [Example 92, 5-[(R)-1-(3-Chlorophenyl)ethoxyl]quinazolin-2,4-diamine] | < 1000 |
| Nc1nc(N)c2c(N3CCCCC3)cccc2n1 [Example 59, 5-(Piperidin-1-yl)quinazoline-2,4-diamine] | < 1000 |
| Nc1nc(N)c2c(SCc3ccc(Cl)cc3)cccc2n1 [Example 29, 5-(4-Chlorobenzylsulfanyl)quinazoline-2,4-diamine] | < 1000 |
| Cc1ccc(C#Cc2cccc3nc(N)nc(N)c23)cc1 [Example 30, 5-p-Tolylethynylquinazoline-2,4-diamine] | < 1000 |
| Nc1nc(N)c2c(OCc3cccc4cccnc34)cccc2n1 [Example 113, 5-(Quinolin-8-ylmethoxy)-quinazoline-2,4-diamine] | < 1000 |
| CC(Oc1cccc2nc(N)nc(N)c12)c1c(F)cccc1F (stereo not drawn) [Example 82, 5-[1-(2,6-Difluorophenyl)-ethoxy]-quinazoline-2,4-diamine] | < 1000 |
| Cc1cc(Cl)ccc1OCc1cccc2nc(N)nc(N)c12 [Example 139, 5-(4-Chloro-2-methylphenoxymethyl)quinazoline-2,4-diamine] | < 1000 |
| Nc1nc(N)c2c(OCc3c(F)cccc3F)cccc2n1 [Example 86, 5-(2,6-Difluorobenzyloxy)-quinazoline-2,4-diamine] | < 1000 |
| Nc1nc(N)c2c(OCc3cnc4ccccc4c3)cccc2n1 [Example 112, 5-(Quinolin-3-ylmethoxy)-quinazoline-2,4-diamine] | < 1000 |
| Nc1nc(N)c2c(OCC(O)c3ccc(C(F)(F)F)cc3)cccc2n1 (stereo not drawn) [Example 163, 2-(2,4-Diaminoquinazolin-5-yloxy)-1-(4-trifluoromethylphenyl)ethanol] | < 1000 |
| CC(C)(Oc1cccc2nc(N)nc(N)c12)c1cccc(Cl)c1 [Example 140, 5-[1-(3-Chlorophenyl)-1-methylethoxy]quinazoline-2,4-diamine] | 1000 to 5000 |
| Nc1nc(N)c2c(OCc3ccccc3F)cccc2n1 [Example 96, 5-(2-Fluorobenzyloxy)-quinazoline-2,4-diamine] | < 1000 |
| C[C@@H](Oc1cccc2nc(N)nc(N)c12)c1ccccc1 [Example 56, 5-((R)-1-Phenylethoxy)quinazoline-2,4-diamine] | < 1000 |
| CC(Oc1cccc2nc(N)nc(N)c12)c1ccc2c(c1)OCO2 (stereo not drawn) [Example 64, 5-(1-Benzo[1,3]-dioxol-5-yl-ethoxy)-quinazoline-2,4-diamine] | < 1000 |
| CC(Oc1cccc2nc(N)nc(N)c12)c1ccc(C(F)(F)F)cc1 (stereo not drawn) [Example 105, 5-[1-(4-Trifluoromethylphenyl)ethoxy]quinazoline-2,4-diamine] | < 1000 |
| COc1cccc(COc2cccc3nc(N)nc(N)c23)c1 [Example 143, 5-(3-Methoxybenzyloxy)quinazoline-2,4-diamine] | < 1000 |
| CC(Oc1cccc2nc(N)nc(N)c12)c1ccccc1F (stereo not drawn) [Example 103, 5-[1-(2-Fluorophenyl)-ethoxy]-quinazoline-2,4-diamine] | < 1000 |

Continued, values first:

| EC50 [nM] | Compound |
| --- | --- |
| < 1000 | CC(Oc1cccc2nc(N)nc(N)c12)c1ccc(Cl)cc1 (stereo not drawn) [Example 49, 5-[1-(4-Chlorophenyl)ethoxy]quinazoline-2,4-diamine] |
| < 1000 | COc1ccc(COc2cccc3nc(N)nc(N)c23)cc1 [Example 144, 5-(4-Methoxybenzyloxy)quinazoline-2,4-diamine] |
| < 1000 | Cc1ccccc1COc1cccc2nc(N)nc(N)c12 [Example 7, 5-(2-Methylbenzyloxy)quinazoline-2,4-diamine] |
| < 1000 | Cc1cc(OCc2cccc3nc(N)nc(N)c23)ccc1Cl [Example 141, 5-(4-Chloro-3-methylphenoxymethyl)quinazoline-2,4-diamine] |
| < 1000 | CC(Oc1cccc2nc(N)nc(N)c12)c1cccc(F)c1 (stereo not drawn) [Example 93, 5-[1-(3-Fluorophenyl)-ethoxy]-quinazoline-2,4-diamine] |
| < 1000 | Nc1nc(N)c2c(COc3ccccc3I)cccc2n1 [Example 159, 5-(2-Iodophenoxymethyl)quinazoline-2,4-diamine] |
| < 1000 | Nc1nc(N)c2c(OCc3ccc(F)c(F)c3)cccc2n1 [Example 87, 5-(3,4-Difluorobenzyloxy)quinazoline-2,4-diamine] |
| < 1000 | Nc1nc(N)c2c(OCc3cccs3)cccc2n1 [Example 22, 5-(Thiophen-2-ylmethoxy)quinazoline-2,4-diamine] |
| < 1000 | Nc1nc(N)c2c(Cc3ccc(Cl)cc3)cccc2n1 [Example 25, 5-(4-Chlorobenzyl)Quinazoline-2,4-Diamine] |
| < 1000 | Nc1nc(N)c2c(OC(C(=O)O)c3ccc(Cl)cc3)cccc2n1 (stereo not drawn) [Example 115, (4-Chlorophenyl)-(2,4-diamino-quinazolin-5-yloxy)-acetic acid] |
| < 1000 | Nc1nc(N)c2c(OCC3CCC3)cccc2n1 [Example 14, 5-(Cyclobutylmethoxy)quinazoline-2,4-diamine] |
| < 1000 | COC(COc1cccc2nc(N)nc(N)c12)c1ccc2c(c1)OCO2 (stereo not drawn) [Example 169, 5-(2-Benzo[1,3]dioxol-5-yl-2-methoxyethoxy)quinazoline-2,4-diamine hydrochloride] |
| < 1000 | CC(Oc1cccc2nc(N)nc(N)c12)C1CCCC1 (stereo not drawn) [Example 120, 5-(1-Cyclopentyl-ethoxy)-quinazoline-2,4-diamine] |
| < 1000 | COc1ccc(COc2cccc3nc(N)nc(N)c23)cc1OC [Example 65, 5-(3,4-Dimethoxybenzyloxy)-quinazoline-2,4-diamine] |
| < 1000 | COc1cccc(C(C)Oc2cccc3nc(N)nc(N)c23)c1 (stereo not drawn) [Example 66, 5-[1-(3-Methoxyphenyl)-ethoxy]-quinazoline-2,4-diamine] |
| < 1000 | Nc1nc(N)c2c(OCc3cc(Cl)c(Cl)cc3CO)cccc2n1 [Example 70, [4,5-Dichloro-2-(2,4-diaminoquinazolin-5-yloxymethyl)phenyl]methanol hydrochloride] |
| < 1000 | COc1cc(OC)cc(C(C)Oc2cccc3nc(N)nc(N)c23)c1 (stereo not drawn) [Example 67, 5-[1-(3,5-Dimethoxyphenyl)-ethoxy]-quinazoline-2,4-diamine] |

Reference: patent publication US9067897B2, “2,4-Diaminoquinazolines for spinal muscular atrophy” (Families of Spinal Muscular Atrophy, priority 2004, dated 2015)
